Legend:
[1] = target: T1, LdGSTu1 (Leptinotarsa decemlineata, UniProt A0A1P8PEY0); test: inhibition of GSH-CDNB conjugation by the recombinant enzyme (residual activity […] at […], […] at […]); assay type: biochemical
T1 construct: full-length LdGSTu1
T1 sequence (A0A1P8PEY0 1-230): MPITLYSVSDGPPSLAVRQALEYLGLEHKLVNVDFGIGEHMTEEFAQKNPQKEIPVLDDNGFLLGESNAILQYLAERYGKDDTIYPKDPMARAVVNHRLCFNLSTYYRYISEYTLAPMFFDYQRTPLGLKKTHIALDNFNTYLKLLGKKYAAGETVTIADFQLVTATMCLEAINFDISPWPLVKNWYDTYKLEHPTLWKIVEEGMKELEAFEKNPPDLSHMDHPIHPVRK

[2] = target: T1, LdGSTu1; test: inhibition of GSH-CDNB conjugation by the recombinant enzyme (residual activity at […]); assay type: biochemical
[3] = target: T1, LdGSTu1; test: steady-state enzyme kinetics of the purified enzyme (Km); assay type: biochemical
[4] = substrate: CC(=O)Oc1ccc([N+](=O)[O-])cc1; test: as above; assay type: biochemical, Leptinotarsa decemlineata; conditions: GSH

## C=C(CC)C(=O)c1ccc(OCC(=O)O)c(Cl)c1Cl [EA, ethacrynic acid]
[1]
  %: 49.6% residual activity at 200 µM

## CCOP(=S)(OCC)Oc1cc(C)nc(C(C)C)n1 [diazinon]
[2]
  %: 75.3% residual activity at 5 mM

## O=[N+]([O-])c1ccc(Cl)c([N+](=O)[O-])c1 [CDNB, 1-chloro-2,4-dinitrobenzene]
[3]
  Km: 542 ± 88 µM

## C/C(=N\C#N)N(C)Cc1ccc(Cl)nc1 [acetamiprid]
[2]
  %: 39.1% residual activity at 5 mM

## CCOP(=S)(OCC)Oc1nc(Cl)c(Cl)cc1Cl [chlorpyrifos]
[2]
  %: 70.5% residual activity at 5 mM

## CN1COCN(Cc2cnc(Cl)s2)/C1=N\[N+](=O)[O-] [thiamethoxam]
[2]
  %: 72.3% residual activity at 5 mM

## O=[N+]([O-])NC1=NCCN1Cc1ccc(Cl)nc1 [imidacloprid]
[2]
  %: 66.4% residual activity at 5 mM

B1: LdGSTu1 (Leptinotarsa decemlineata) (protein)
chain: T1 sequence (A0A1P8PEY0 1-230)
notes: full-length LdGSTu1
[4]
  Km: 1830 ± 572 µM
  Vmax: 13.5 µM/min
  kcat: 0.128 ± 0.0202 s⁻¹
  kcat/Km: 70 M⁻¹ s⁻¹

— paper PMC8584303 (International Journal of Molecular Sciences, 2021)
